What was measured:
Type in all cases: cell-based
[1] = target: proteins of U3A human fibrosarcoma cells (4462 proteins detected) (Homo sapiens, UniProt Q16775); conditions: protein HAGH, U3A cells
[2] = target: proteins of U3A human fibrosarcoma cells (4462 proteins detected) (Homo sapiens, UniProt Q8IVL6); conditions: protein LEPREL2; soluble abundance after heat, U3A cells
[3] = target: proteins of U3A human fibrosarcoma cells (4462 proteins detected) (Homo sapiens, UniProt Q9H871); conditions: protein RMND5A; U3A cells
Sequence of proteins of U3A human fibrosarcoma cells (4462 proteins detected) (Homo sapiens, UniProt Q9H871) (Q9H871 whole entry): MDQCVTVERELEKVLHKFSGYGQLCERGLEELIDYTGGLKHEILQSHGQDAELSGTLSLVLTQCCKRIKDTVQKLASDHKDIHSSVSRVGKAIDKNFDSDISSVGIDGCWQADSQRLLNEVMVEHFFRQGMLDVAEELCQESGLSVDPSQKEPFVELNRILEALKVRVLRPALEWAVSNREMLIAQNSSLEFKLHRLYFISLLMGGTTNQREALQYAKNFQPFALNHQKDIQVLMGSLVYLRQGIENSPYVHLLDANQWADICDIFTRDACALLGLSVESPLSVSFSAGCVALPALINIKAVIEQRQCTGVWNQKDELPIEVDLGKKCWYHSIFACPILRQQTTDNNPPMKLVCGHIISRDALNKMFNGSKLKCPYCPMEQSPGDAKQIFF

[4] = target: proteins of U3A human fibrosarcoma cells (4462 proteins detected) (Homo sapiens, UniProt P62701); conditions: protein RPS4X; soluble abundance after heat, U3A cells
[5] = target: proteins of U3A human fibrosarcoma cells (4462 proteins detected) (Homo sapiens, UniProt Q9H900); conditions: protein ZWILCH; U3A cells
[6] = target: proteins of U3A human fibrosarcoma cells (4462 proteins detected) (Homo sapiens, UniProt Q9Y281); conditions: protein CFL2, U3A cells
[7] = target: proteins of U3A human fibrosarcoma cells (4462 proteins detected) (Homo sapiens, UniProt P13473); conditions: protein LAMP2; soluble abundance after heat, U3A cells
Sequence of proteins of U3A human fibrosarcoma cells (4462 proteins detected) (Homo sapiens, UniProt P13473) (P13473 29-410): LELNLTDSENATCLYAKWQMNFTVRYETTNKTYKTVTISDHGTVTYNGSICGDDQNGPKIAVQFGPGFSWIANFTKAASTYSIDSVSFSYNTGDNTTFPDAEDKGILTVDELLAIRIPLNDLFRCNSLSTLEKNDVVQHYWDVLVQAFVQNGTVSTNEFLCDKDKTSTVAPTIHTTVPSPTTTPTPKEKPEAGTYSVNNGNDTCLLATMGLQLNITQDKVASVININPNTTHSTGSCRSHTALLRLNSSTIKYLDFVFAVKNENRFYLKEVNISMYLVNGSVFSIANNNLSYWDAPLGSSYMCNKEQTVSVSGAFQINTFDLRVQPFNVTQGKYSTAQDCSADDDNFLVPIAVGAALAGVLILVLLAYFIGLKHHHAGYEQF

[8] = target: proteins of U3A human fibrosarcoma cells (4462 proteins detected) (Homo sapiens, UniProt Q92575); conditions: protein UBXN4; U3A cells
Sequence of proteins of U3A human fibrosarcoma cells (4462 proteins detected) (Homo sapiens, UniProt Q92575) (Q92575 whole entry): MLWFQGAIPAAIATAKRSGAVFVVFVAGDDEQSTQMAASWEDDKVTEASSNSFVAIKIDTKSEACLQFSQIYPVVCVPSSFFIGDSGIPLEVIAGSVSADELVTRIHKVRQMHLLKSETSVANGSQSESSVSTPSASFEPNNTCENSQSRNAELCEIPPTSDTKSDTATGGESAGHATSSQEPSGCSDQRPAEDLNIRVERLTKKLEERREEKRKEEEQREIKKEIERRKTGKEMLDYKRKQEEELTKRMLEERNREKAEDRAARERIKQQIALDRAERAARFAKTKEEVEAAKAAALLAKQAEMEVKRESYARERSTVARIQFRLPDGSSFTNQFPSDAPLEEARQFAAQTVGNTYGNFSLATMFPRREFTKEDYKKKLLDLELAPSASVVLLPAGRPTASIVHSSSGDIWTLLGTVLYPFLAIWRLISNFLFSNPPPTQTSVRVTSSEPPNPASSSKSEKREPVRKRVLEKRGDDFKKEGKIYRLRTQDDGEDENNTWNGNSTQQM

[9] = target: proteins of U3A human fibrosarcoma cells (4462 proteins detected) (Homo sapiens, UniProt Q76FK4); conditions: protein NOL8; soluble abundance after heat, U3A cells
Sequence of proteins of U3A human fibrosarcoma cells (4462 proteins detected) (Homo sapiens, UniProt Q76FK4) (Q76FK4 whole entry): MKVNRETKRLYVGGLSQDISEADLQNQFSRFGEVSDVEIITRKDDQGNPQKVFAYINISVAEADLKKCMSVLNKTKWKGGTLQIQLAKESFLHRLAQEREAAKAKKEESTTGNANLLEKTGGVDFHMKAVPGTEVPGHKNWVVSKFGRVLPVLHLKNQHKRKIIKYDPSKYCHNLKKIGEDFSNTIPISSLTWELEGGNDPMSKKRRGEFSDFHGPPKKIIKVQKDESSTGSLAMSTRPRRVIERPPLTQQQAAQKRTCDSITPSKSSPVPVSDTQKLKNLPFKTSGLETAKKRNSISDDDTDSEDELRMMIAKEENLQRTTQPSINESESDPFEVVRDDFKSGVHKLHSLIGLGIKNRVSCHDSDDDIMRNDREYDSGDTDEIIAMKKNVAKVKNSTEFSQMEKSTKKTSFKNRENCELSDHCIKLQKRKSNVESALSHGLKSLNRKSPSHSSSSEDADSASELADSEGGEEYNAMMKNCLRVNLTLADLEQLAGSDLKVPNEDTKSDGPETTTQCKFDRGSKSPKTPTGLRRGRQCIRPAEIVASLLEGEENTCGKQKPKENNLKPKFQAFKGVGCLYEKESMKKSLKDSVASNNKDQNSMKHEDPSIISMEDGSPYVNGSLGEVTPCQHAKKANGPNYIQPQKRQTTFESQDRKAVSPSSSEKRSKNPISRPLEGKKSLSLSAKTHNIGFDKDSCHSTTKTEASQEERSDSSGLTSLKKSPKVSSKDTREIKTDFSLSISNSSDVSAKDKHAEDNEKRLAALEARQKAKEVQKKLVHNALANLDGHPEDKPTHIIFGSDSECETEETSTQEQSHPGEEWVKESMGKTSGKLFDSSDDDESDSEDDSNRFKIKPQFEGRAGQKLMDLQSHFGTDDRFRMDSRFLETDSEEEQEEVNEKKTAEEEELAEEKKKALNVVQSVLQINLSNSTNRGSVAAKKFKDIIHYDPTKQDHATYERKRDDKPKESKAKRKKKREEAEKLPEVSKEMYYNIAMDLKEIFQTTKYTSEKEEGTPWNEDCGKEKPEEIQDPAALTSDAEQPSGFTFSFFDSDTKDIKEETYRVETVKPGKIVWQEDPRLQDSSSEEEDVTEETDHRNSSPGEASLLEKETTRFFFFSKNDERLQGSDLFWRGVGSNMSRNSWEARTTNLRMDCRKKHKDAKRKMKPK

[10] = target: proteins of U3A human fibrosarcoma cells (4462 proteins detected) (Homo sapiens, UniProt Q13601); conditions: protein KRR1; soluble abundance after heat, U3A cells
Sequence of proteins of U3A human fibrosarcoma cells (4462 proteins detected) (Homo sapiens, UniProt Q13601) (Q13601 whole entry): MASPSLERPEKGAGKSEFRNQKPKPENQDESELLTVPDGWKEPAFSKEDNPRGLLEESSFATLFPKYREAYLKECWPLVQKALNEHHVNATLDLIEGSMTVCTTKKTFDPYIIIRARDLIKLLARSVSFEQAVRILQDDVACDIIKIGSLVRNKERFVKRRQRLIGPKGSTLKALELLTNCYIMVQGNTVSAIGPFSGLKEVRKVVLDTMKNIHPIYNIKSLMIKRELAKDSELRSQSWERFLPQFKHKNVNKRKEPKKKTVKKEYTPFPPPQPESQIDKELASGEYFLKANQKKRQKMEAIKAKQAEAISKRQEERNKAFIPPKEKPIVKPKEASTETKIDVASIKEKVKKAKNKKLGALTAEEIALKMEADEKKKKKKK

[11] = target: proteins of U3A human fibrosarcoma cells (4462 proteins detected) (Homo sapiens, UniProt Q9NYY8); conditions: protein FASTKD2; U3A cells
[12] = target: proteins of U3A human fibrosarcoma cells (4462 proteins detected) (Homo sapiens, UniProt Q5HYK7); conditions: protein SH3D19; U3A, 10 μM, 2 h
[13] = target: proteins of U3A human fibrosarcoma cells (4462 proteins detected) (Homo sapiens, UniProt P54709); conditions: protein ATP1B3; U3A, 10 μM, 2 h
Sequence of proteins of U3A human fibrosarcoma cells (4462 proteins detected) (Homo sapiens, UniProt P54709) (P54709 whole entry): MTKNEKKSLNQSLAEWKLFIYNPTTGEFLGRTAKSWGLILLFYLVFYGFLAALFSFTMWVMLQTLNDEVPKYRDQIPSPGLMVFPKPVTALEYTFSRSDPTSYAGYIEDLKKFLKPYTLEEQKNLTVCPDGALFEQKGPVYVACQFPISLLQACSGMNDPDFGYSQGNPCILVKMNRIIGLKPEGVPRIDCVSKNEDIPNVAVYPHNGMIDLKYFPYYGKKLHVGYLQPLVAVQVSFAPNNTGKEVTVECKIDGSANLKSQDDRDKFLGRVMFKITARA

[14] = target: proteins of U3A human fibrosarcoma cells (4462 proteins detected) (Homo sapiens, UniProt Q9H3U1); conditions: protein UNC45A; U3A cells
[15] = target: proteins of U3A human fibrosarcoma cells (4462 proteins detected) (Homo sapiens, UniProt Q6SJ93); conditions: protein FAM111B; U3A cells
[16] = target: proteins of U3A human fibrosarcoma cells (4462 proteins detected) (Homo sapiens, UniProt P61088); conditions: protein UBE2N; UBE2NL; U3A cells
Sequence of proteins of U3A human fibrosarcoma cells (4462 proteins detected) (Homo sapiens, UniProt P61088) (P61088 whole entry): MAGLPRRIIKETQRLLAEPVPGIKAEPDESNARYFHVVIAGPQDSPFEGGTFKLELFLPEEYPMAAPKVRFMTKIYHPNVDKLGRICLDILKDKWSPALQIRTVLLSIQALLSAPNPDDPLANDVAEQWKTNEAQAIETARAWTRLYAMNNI

[17] = target: proteins of U3A human fibrosarcoma cells (4462 proteins detected) (Homo sapiens, UniProt Q9NWV8); conditions: protein BABAM1; soluble abundance after heat, U3A cells
[18] = target: proteins of U3A human fibrosarcoma cells (4462 proteins detected) (Homo sapiens, UniProt O75533); conditions: protein SF3B1; U3A cells
[19] = target: proteins of U3A human fibrosarcoma cells (4462 proteins detected) (Homo sapiens, UniProt Q9C0E2); conditions: protein XPO4; soluble abundance after heat, U3A cells
[20] = target: proteins of U3A human fibrosarcoma cells (4462 proteins detected) (Homo sapiens, UniProt P54886); conditions: protein ALDH18A1; U3A cells
[21] = target: proteins of U3A human fibrosarcoma cells (4462 proteins detected) (Homo sapiens, UniProt Q96T60); conditions: protein PNKP; U3A, 10 μM, 2 h
[22] = target: proteins of U3A human fibrosarcoma cells (4462 proteins detected) (Homo sapiens, UniProt P09874); conditions: protein PARP1; U3A cells
[23] = target: proteins of U3A human fibrosarcoma cells (4462 proteins detected) (Homo sapiens, UniProt P07602); conditions: protein PSAP; soluble abundance after heat, U3A cells
[24] = target: proteins of U3A human fibrosarcoma cells (4462 proteins detected) (Homo sapiens, UniProt Q03188); conditions: protein CENPC, U3A cells
Sequence of proteins of U3A human fibrosarcoma cells (4462 proteins detected) (Homo sapiens, UniProt Q03188) (Q03188 whole entry): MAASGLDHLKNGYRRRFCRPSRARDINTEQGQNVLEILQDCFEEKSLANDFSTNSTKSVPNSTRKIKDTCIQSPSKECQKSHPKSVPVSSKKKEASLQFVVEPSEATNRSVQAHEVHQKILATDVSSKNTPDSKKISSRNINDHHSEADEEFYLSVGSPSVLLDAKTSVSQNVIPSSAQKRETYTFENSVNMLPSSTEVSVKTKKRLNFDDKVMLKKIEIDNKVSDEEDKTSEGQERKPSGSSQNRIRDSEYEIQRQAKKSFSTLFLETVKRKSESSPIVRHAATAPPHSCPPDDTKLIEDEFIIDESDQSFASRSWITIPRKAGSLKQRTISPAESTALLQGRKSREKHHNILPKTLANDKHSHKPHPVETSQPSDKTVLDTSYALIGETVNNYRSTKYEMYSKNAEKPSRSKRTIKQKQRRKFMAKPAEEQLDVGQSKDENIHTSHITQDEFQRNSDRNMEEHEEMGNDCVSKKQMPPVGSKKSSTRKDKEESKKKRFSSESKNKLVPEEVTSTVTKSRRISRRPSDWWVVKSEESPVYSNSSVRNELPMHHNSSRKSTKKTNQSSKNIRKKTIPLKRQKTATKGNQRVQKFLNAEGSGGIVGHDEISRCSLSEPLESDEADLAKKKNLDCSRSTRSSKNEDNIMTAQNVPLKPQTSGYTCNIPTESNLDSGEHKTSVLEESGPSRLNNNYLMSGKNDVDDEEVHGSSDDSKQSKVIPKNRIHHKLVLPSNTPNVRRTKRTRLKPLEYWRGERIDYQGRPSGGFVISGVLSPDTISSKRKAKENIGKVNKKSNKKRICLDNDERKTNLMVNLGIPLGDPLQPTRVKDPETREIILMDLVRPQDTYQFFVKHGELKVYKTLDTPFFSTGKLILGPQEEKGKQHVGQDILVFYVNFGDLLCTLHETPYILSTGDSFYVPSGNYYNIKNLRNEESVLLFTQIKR

[25] = target: proteins of U3A human fibrosarcoma cells (4462 proteins detected) (Homo sapiens, UniProt P38432); conditions: protein COIL; soluble abundance after heat, U3A cells
[26] = target: proteins of U3A human fibrosarcoma cells (4462 proteins detected) (Homo sapiens, UniProt P25787); conditions: protein PSMA2, U3A cells
[27] = target: proteins of U3A human fibrosarcoma cells (4462 proteins detected) (Homo sapiens, UniProt Q9NZT2); conditions: protein OGFR, U3A cells
[28] = target: proteins of U3A human fibrosarcoma cells (4462 proteins detected) (Homo sapiens, UniProt Q96CB9); conditions: protein NSUN4; U3A cells
[29] = target: proteins of U3A human fibrosarcoma cells (4462 proteins detected) (Homo sapiens, UniProt Q86TB9); conditions: protein PATL1; U3A cells
Sequence of proteins of U3A human fibrosarcoma cells (4462 proteins detected) (Homo sapiens, UniProt Q86TB9) (Q86TB9 whole entry): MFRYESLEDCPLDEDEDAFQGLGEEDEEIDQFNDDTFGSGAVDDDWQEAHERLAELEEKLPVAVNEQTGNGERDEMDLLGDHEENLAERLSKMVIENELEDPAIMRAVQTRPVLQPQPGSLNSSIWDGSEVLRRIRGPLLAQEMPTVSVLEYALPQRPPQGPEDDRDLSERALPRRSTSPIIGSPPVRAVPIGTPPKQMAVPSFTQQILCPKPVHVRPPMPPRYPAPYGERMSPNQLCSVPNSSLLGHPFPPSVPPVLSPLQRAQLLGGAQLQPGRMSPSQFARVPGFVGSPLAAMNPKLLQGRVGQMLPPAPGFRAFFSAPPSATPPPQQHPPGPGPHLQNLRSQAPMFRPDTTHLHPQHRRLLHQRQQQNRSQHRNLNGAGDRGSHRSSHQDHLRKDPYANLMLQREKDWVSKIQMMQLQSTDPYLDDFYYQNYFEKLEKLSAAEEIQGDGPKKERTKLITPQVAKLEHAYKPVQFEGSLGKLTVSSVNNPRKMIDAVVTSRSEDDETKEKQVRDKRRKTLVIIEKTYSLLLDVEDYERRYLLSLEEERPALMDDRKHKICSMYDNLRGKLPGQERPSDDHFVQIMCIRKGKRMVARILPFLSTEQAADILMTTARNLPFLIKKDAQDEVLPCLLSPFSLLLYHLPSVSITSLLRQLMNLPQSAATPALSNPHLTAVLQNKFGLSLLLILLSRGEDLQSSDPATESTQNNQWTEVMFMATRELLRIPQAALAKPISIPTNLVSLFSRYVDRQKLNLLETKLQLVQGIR

## CCc1nc(N)nc(N)c1-c1ccc(Cl)cc1 [pyrimethamine]
[1]
  Log2 (PYR/DMSO): -0.04
[2]
  Log2 (PYR/DMSO): 0.14
[3]
  Log2 (PYR/DMSO): 0.21
[4]
  Log2 (PYR/DMSO): 0.14
[5]
  Log2 (PYR/DMSO): 0.22
[6]
  Log2 (PYR/DMSO): -0.04
[7]
  Log2 (PYR/DMSO): 0.14
[8]
  Log2 (PYR/DMSO): 0.18
[9]
  Log2 (PYR/DMSO): 0.13
[10]
  Log2 (PYR/DMSO): 0.14
[11]
  Log2 (PYR/DMSO): 0.21
[12]
  Log2 (PYR/DMSO), SH3D19: -0.14
[13]
  Log2 (PYR/DMSO), ATP1B3: 0.27
[14]
  Log2 (PYR/DMSO): 0.21
[15]
  Log2 (PYR/DMSO): 0.20
[16]
  Log2 (PYR/DMSO): 0.21
[17]
  Log2 (PYR/DMSO): 0.15
[18]
  Log2 (PYR/DMSO): 0.16
[19]
  Log2 (PYR/DMSO): 0.13
[20]
  Log2 (PYR/DMSO): 0.17
[21]
  Log2 (PYR/DMSO), PNKP: -0.22
[22]
  Log2 (PYR/DMSO): 0.19
[23]
  Log2 (PYR/DMSO): 0.15
[24]
  Log2 (PYR/DMSO): -0.04
[25]
  Log2 (PYR/DMSO): 0.15
[26]
  Log2 (PYR/DMSO): -0.03
[27]
  Log2 (PYR/DMSO): -0.04
[28]
  Log2 (PYR/DMSO): 0.16
[29]
  Log2 (PYR/DMSO): 0.22
